According to US8101211B2, “Compositions for retarding skin aging” (Kabushiki Kaisha Yakult Honsha, priority 2000, dated 2012):
In brackets after ≈: the same amount, converted by molar mass.

Assays:
[1] = system: B16 mouse melanoma cells (B16-F1 cells, ATCC No. CRL-6323); test: Melanin formation-inhibiting test (extracellular melanin, 96-well plate method); type: cell-based; conditions: for IC50: Mus musculus, extracellular melanin, B16-F1 cells, read-out: Melanin formation inhibition IC50; for Melanin formation inhibition, % Inhibition at 0.001%: test concentration 0.001%, 3 days, theophylline 0.5 mM
Protocol: Measurements were made by the 96-well plate method using […] mouse melanoma cells (B16-F1 cells, ATCC No. CRL-6323) purchased from Dainippon Pharmaceutical. The cells (1×10^4) were sowed into each well and cultured in 10% FCS- and 1% antibiotic-containing D-MEM for 24 hours (37° C., 5% CO2), the medium was then replaced with D-MEM supplemented with the test substance and theophylline (0.5 mM), and cultivation was further continued for 3 days. The solvent (ethanol) for the test substance was added to the medium in a final concentration of 1%. An equal volume of HEPES buffer (pH 6.8)/ethanol (9:1) was added to the culture supernatant obtained by centrifugation and the absorbance at 475 nm to 660 nm was measured on the microplate reader EL-340 (BIO-TEK INSTRUMENT), and the melanin formation-inhibiting activity was evaluated in terms of the amount of extracellular melanin.

[2] = DPPH radical-capturing activity; conditions: concentration at which DPPH radical scavenging is 50%
Excerpt: [table] […] The extent of activity was expressed in terms of DPPH Radial Scavenging (%) calculated according to the following formula: DPPH Radial Scavenging (%)=(A−B)/A×100 where A: absorbance without addition of sample, B: absorbance with addition of sample. […]

| IC50 [1] | DPPH radical scavenging IC50 [2] | Structure (SMILES) | Melanin formation inhibition, % Inhibition at 0.001% [1] |
| --- | --- | --- | --- |
| 12.1 mg/L (≈ 44.4 µM) | – | OC[C@H]1O[C@@H](Oc2ccc(O)cc2)[C@H](O)[C@@H](O)[C@@H]1O [Arbutin] | 32.4% |
| – | 4.1 mg/L | O=C1O[C@H]([C@@H](O)CO)C(O)=C1O [Ascorbic acid] | – |
| – | 13.5 mg/L | N[C@@H](CCC(=O)N[C@@H](CS)C(=O)NCC(=O)O)C(=O)O [Glutathione] | – |
| 12.9 mg/L (≈ 90.8 µM) | – | O=c1cc(CO)occ1O [Kojic acid] | 25.7% |
